Columns and labels:
[1] = tested on: Pseudomonas aeruginosa CF86/57388A (mucoid); assay: Pseudomonas aeruginosa lung infection in rats: lung pathology and lung bacteriology; type: in vivo, Lewis rat; conditions: for Lung bacteriology: Percentage of animals that cleared the bacteria in the lungs / Lung pathological scores: animals with Score 1 + 2 / Lung pathological scores: animals with Score 3 / Lung pathological scores: animals with Score 4: 0.1 mg/ml, 0.1 ml/rat intratracheally at hour 0 and 3
Procedure: The bacterial strain, Pseudomonas aeruginosa, used in the study is CF86/57388A (1997), which is isolated from a cystic fibrosis patient and keeps stable mucoid phenotype. The rat strain used in the study is Lewis rat (7 weeks old, female) imported from Germany. Both bacterial challenge and drug administration were done intratracheally. All rats were challenged with mucoid P. aeruginosa in alginate. The concentration of the bacteria was 1×10^10 CFU/ml and each rat received 0.1 ml (1×10^9 CFU) bacteria. Control group received placebo (sterile saline, 0.1 ml/rat) twice at hour 0 and 3, and the Novispirin G10 group received the peptide (0.1 mg/ml, 0.1 ml/rat) twice at hour 0 and 3. The animals were sacrificed on day 3, 5, 7 and 10 after challenge for parameters evaluation.

[2] = tested on: Staphylococcus aureus (ATCC 25923); assay: Staphylococcus aureus wound infection in pigs (wound chambers, 4 hour time course); type: in vivo, Göttinger minipigs; conditions: 1 ml applied
Procedure: The bacterial strain, Staphylococcus aureus, used in the study was ATCC 25923. The amino acid sequence of Novispirin G10 is shown in SEQ ID NO: 16.
Novispirin G10 was diluted in 0.01% acetic acid containing 0.1% BSA with a final concentration of 1 mg (substrate)/ml (solution); 100 micrograms/ml; 10 micrograms/ml and 1 microgram/ml. The carrier control was 0.01% acetic acid containing 0.1% BSA. As a positive control was used Synthetic Protegrin 1 (Charité, Institut f. Biochemie d. Humboldt Universität Berlin) diluted in 0.01% acetic acid containing 0.1% BSA with a final concentration of 100 micrograms/ml.
The chambers are made of one piece of titanium, have a screw top cover (also made of titanium) and were built in teamwork with Cranio Construct Bochum. The chambers have a height of 14 mm, an inner diameter of 25 mm and an outer diameter of 32 mm without baseplate (with baseplate: 50 mm).
After providing permission to conduct experiments with vertebrates in compliance with German animal protection laws, Göttinger minipigs (Fa. Ellegaard, Dalmose, Denmark; female, 6 months old, 25-30 kg weight) were chosen to implant the chambers on. The pigs were kept at least 2 weeks in the stable, fed a standard porcine diet and housed at 20° C. to 30° C. in an atmosphere of approximately 65% humidity with a light cycle of 12 hours on and 12 hours off. The animals used for this study appeared, during the experiments, clinically healthy—rectal temperature and body weight remained normal over the observed period.
Before wounding the skin was surgically prepared, washed with soap and disinfected with Octenisept (S&M, Norderstedt, Germany) for five minutes. Twelve BO-Chambers were implanted on the pigs back and flank between the base of the scapula and the iliac crest. The wounds were spaced a minimum of 5 cm apart and were created in four rows parallel to the columna vertebralis, two rows on each side of the columna vertebrtalis. The exact size and shape of the wounds were ensured by a special custom-made “round-scalpel” (also built in teamwork with Cranio Construct Bochum), which has a diameter of 33 mm. Epidermal, dermal subcutaneous tissues were removed, possible bleedings stanched by bipolar diathermy. The chambers were placed with an additionally secant v-incision at positions 6 respectively 12 o'clock on the musculus thoracicus longus fascia and the muscle fascia of the external ripcage muscles. The incisions were sutured with 2/0 Monocryl followed by the closure of the chambers. Povidone-iodine salve (Betaisodonna-salve, Mundipharma, Austria) was smothered on the wound edges. The chambers were dressed with paraffin gauze (Jelonet, Smith & Nephew, Lohfelden, Germany) and sterile compresses. Dressings were changed every second day under sedation (as described above).
Bacterial Background of each chamber was measured every second day, to detect potential contamination. Only one contaminated chamber was detected. Seven days post operation ten chambers were inoculated with bacteria.
For bacteria progeny Staphylococcus aureus (ATCC 25923) was plated on LB-Agar plate and incubated at 37° C. for 18 hours. One colony was picked and transfered into 3 ml LB-Medium for over night culture at 37° C. at 300 rpm. Over night culture was diluted in 50 ml fresh LB-Medium and incubated for 2.5 hours at 37° C. at 200 rpm.
Bacteria were pelleted, 4000 rpm, 5 min, Mergafuge 1.0 R (Heraeus, Hanau, Germany), and resuspended in PBS. Amount of containg bacteria was detremined by OD600 nm-measurement and calculated as follows: Colony forming Unit/ml=OD600 nm×2.5×10^8 (bacteria)
To inoculate one chamber 5×10^8 were used.
The establishment of the infection was proven by the measurement of bacterial counts per chamber. All inoculated chambers were infected after two days. Chamber No. 2 keeps bacteria free.
At day four after infection the antimicrobial effect of the testing substrate was measured in a time course of 4 hours in duration. […]

In the case of “Novispirin G10: novispirin antimicrobial polypeptide; amino acid sequence shown in SEQ ID NO: 16 (KNLRRIIRKGIHIIKKYG; Synthetic antimicrobial peptide)”, the “Lung bacteriology: Percentage of animals that cleared the bacteria in the lungs” value (from here on “Lung bacteriology: Percentage”) ([1]; Day 3) is reported as “(30%)”, the “Lung bacteriology: Percentage” value ([1]; Day 5) is reported as “(50%)” and the “Lung bacteriology: Percentage” value ([1]; Day 7) is reported as “(90%)”. For the same substance, the “Lung bacteriology: Percentage” value ([1]; Day 10) was “(100%)”, the “Gross lung pathology compared with the placebo control group” value ([1]; all 4 time points (day 3, 5, 7, 10)) was “significantly milder lung pathology” and the Histopathology of lungs ([1]; day 3) was “lung consolidation with chronic inflammation is the dominant change”. For the same substance, the “Lung bacteriology compared to the control group” value ([1]; day 3) was 175 times lower, the “Severity of lung scoring versus control group” value ([1]; day 3) was “no significant difference in the severity of lung scoring” and the “Gross lung pathology: lung consolidation area” value ([1]; day 3, versus placebo control) was “the consolidation area was much smaller”. For the same substance, the “Lung pathological scores: animals with Score 1 + 2” value ([1]; day 3 after challenge) was 0/14 = 0%, the “Lung pathological scores: animals with Score 3” value ([1]; day 3 after challenge) was 3/14 = 21.4% and the “Lung pathological scores: animals with Score 4” value ([1]; day 3 after challenge) was 11/14 = 78.6%. For the same substance, the Histopathology of lungs ([1]; day 5) was “milder chronic inflammation”, the “Lung pathological scores: animals with Score 1 + 2” value ([1]; day 5 after challenge) was 0/14 = 0% and the “Lung pathological scores: animals with Score 3” value ([1]; day 5 after challenge) was 10/14 = 71.4%. The “Lung pathological scores: animals with Score 4” value ([1]; day 5 after challenge) was 0/14 = 0%, the “Lung pathological scores: animals with Score 1 + 2” value ([1]; day 7 after challenge) was 6/11 = 54.5% and the “Lung pathological scores: animals with Score 3” value ([1]; day 7 after challenge) was 5/11 = 45.5%. For the same substance, the “Lung pathological scores: animals with Score 4” value ([1]; day 7 after challenge) was 0/11 = 0%, the Histopathology of lungs ([1]; day 10) was “the lung pathology was tended to be cured” and the “Lung pathological scores: animals with Score 1 + 2” value ([1]; day 10 after challenge) was 11/14 = 78.6%. For the same substance, the “Lung pathological scores: animals with Score 3” value ([1]; day 10 after challenge) was 3/14 = 21.4%, the “Lung pathological scores: animals with Score 4” value ([1]; day 10 after challenge) was 0/14 = 0% and the “Gross lung pathology: dominant finding” value ([1]; days 5, 7 and 10) was “small lung atelectasis, no abscess and adhesion found”. The “Severity of lung scoring versus control group” value ([1]; from day 5 on) was “significantly milder lung pathology”, the “Histopathology of lungs in comparison with the placebo control group” value ([1]; overall, intratracheal treatment) was “milder lung inflammation and recover remarkably faster” and the “Mean CFU per ml sample volume (chamber fluid)” value (shortened to “Mean CFU per ml sample volume”) ([2]; 1 mg/ml, 0 hours) was 10700000 CFU/ml. For the same substance, the “Mean CFU per ml sample volume” value ([2]; 1 mg/ml, 1 hour) was 2817 CFU/ml, the “Mean CFU per ml sample volume” value ([2]; 1 mg/ml, 2 hours) was 2100 CFU/ml and the “Mean CFU per ml sample volume” value ([2]; 1 mg/ml, 3 hours) was 833 CFU/ml. The “Mean CFU per ml sample volume” value ([2]; 1 mg/ml, 4 hours) was 1233 CFU/ml, the “Mean CFU per ml sample volume” value ([2]; 1 microgram/ml, 0 hours) was 9060000 CFU/ml and the “Mean CFU per ml sample volume” value ([2]; 1 microgram/ml, 1 hour) was 2508333 CFU/ml. For the same substance, the “Mean CFU per ml sample volume” value ([2]; 1 microgram/ml, 2 hours) was 159067 CFU/ml, the “Mean CFU per ml sample volume” value ([2]; 1 microgram/ml, 3 hours) was 33858 CFU/ml and the “Mean CFU per ml sample volume” value ([2]; 1 microgram/ml, 4 hours) was 148333 CFU/ml. For the same substance, the “Mean CFU per ml sample volume” value ([2]; 10 micrograms/ml, 0 hours) was 5065000 CFU/ml, the “Mean CFU per ml sample volume” value ([2]; 10 micrograms/ml, 1 hour) was 440500 CFU/ml and the “Mean CFU per ml sample volume” value ([2]; 10 micrograms/ml, 2 hours) was 304500 CFU/ml. The “Mean CFU per ml sample volume” value ([2]; 10 micrograms/ml, 3 hours) was 40910 CFU/ml, the “Mean CFU per ml sample volume” value ([2]; 10 micrograms/ml, 4 hours) was 1563188 CFU/ml and the “Mean CFU per ml sample volume” value ([2]; 100 micrograms/ml, 0 hours) was 1330000 CFU/ml. The “Mean CFU per ml sample volume” value ([2]; 100 micrograms/ml, 1 hour) was 790033 CFU/ml, the “Mean CFU per ml sample volume” value ([2]; 100 micrograms/ml, 2 hours) was 195125 CFU/ml and the “Mean CFU per ml sample volume” value ([2]; 100 micrograms/ml, 3 hours) was 142765 CFU/ml. The “Mean CFU per ml sample volume” value ([2]; 100 micrograms/ml, 4 hours) was 8467 CFU/ml.

Source: US20050245452A1, “Pharmaceutical use of novispirins” (Novozymes A/S, priority 2004, published 2005)
